≈ marks a conversion by molar mass, not a printed value.
Tests used:
Format in all cases: functional
Cryptococcus neoformans = experiment: Antifungal activity against Cryptococcus neoformans ATCC 14117 after 24 hrs by serial dilution method; settings: ATCC 14117, 24 h
Botrytis cinerea = experiment: Antifungal activity against Botrytis cinerea after 48 hrs by serial dilution method
Aspergillus fumigatus = experiment: Antifungal activity against Aspergillus fumigatus ATCC 13073 after 24 hrs by serial dilution method; settings: ATCC 13073, 24 h
Globisporangium ultimum = experiment: Antifungal activity against Pythium ultimum after 24 hrs by serial dilution method
Candida tropicalis = experiment: Antifungal activity against Candida tropicalis CBS94 after 24 hrs by serial dilution method
Aspergillus flavus = experiment: Antifungal activity against Aspergillus flavus ATCC 24133 after 24 hrs by serial dilution method; settings: ATCC 24133, 24 h
Phytophthora infestans = experiment: Antifungal activity against Phytophthora infestans after 96 hrs by serial dilution method

| SMILES | MIC (Cryptococcus neoformans) | MIC (Botrytis cinerea) | MIC (Aspergillus fumigatus) | MIC (Globisporangium ultimum) | MIC (Candida tropicalis) | MIC (Aspergillus flavus) | MIC (Phytophthora infestans) |
| --- | --- | --- | --- | --- | --- | --- | --- |
| CCC(C)C(=O)C(O)Cc1c[nH]c2ccccc12 (stereo unspecified) | > 100 µg/mL | 12 µg/mL (≈ 48.9 µM) | > 100 µg/mL | > 100 µg/mL | > 100 µg/mL | > 100 µg/mL | 100 µg/mL (≈ 408 µM) |
| CC(=O)OC(Cc1c[nH]c2ccccc12)C(=O)C(C)C (stereo unspecified) | 25 µg/mL (≈ 91.5 µM) | > 100 µg/mL | > 100 µg/mL | – | > 100 µg/mL | > 100 µg/mL | – |
| CC(C)C(=O)C(O)Cc1c[nH]c2ccccc12 (stereo unspecified) | > 100 µg/mL | 12 µg/mL (≈ 51.9 µM) | > 100 µg/mL | > 100 µg/mL | > 100 µg/mL | > 100 µg/mL | 50 µg/mL (≈ 216 µM) |
| CCC(C)C(=O)C(Cc1c[nH]c2ccccc12)OC(C)=O (stereo unspecified) | 50 µg/mL (≈ 174 µM) | > 100 µg/mL | > 100 µg/mL | > 100 µg/mL | > 100 µg/mL | > 100 µg/mL | 100 µg/mL (≈ 348 µM) |
